These results are taken from patent US9116157B2, “Ice-cleaved alpha-synuclein as a biomarker” (Brandeis University, priority 2010, dated 2015).

The nature of data set [1]: Blood-brain barrier penetration in animals, preliminary tests. The format is in vivo. An excerpt: The present example describes an approach for assessing is the ability of, inter alia, the two compounds referenced above (i.e., VX-765 and NCGC00185682) to cross the blood brain-barrier (BBB). […] In view of the fact that studies of VX-765 as a potential epilepsy therapeutic are currently underway at Vertex, it is hypothesized that either BBB penetration in humans is better or that the amount of compound in the CNS that is needed to achieve the desired effect being measured in the studies is small.

The target of the next data set is T1, ICE (Homo sapiens, UniProt P29466).
T1 sequence (P29466 120-297 limits assumed): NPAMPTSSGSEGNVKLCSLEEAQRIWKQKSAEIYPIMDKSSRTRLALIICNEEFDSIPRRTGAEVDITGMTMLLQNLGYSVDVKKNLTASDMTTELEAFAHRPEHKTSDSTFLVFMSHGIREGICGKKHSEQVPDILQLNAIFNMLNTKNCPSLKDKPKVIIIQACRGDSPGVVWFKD
T1 sequence (P29466 317-404 limits assumed): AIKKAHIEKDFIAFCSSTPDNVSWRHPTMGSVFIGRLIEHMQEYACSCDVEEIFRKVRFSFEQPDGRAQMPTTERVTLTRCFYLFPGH
Description: ICE digestion of α-synuclein in vitro, SDS-PAGE and western blot with anti-synuclein antibody. The format is biochemical. Here is the method:
Here, a 60 ul reaction mixture consisting of 21 μg of synuclein, 10 μg ICE in 100 mM HEPES, pH 7.4, 0.1% OG, 10% glycerol, 150 mM NaCl, with or without 20 μM inhibitor was incubated at 37° C. for 2 hours. 20 μl were withdrawn from the reaction for SDS-PAGE followed by western blotting with anti-synuclein antibody (FIG. 6).
A general note: Immunoblotting shows a protein as a band on a membrane.

Data set [2] concerns M17 cells overexpressing alpha-synuclein. In words: LIVE/DEAD cell viability assay, rescue from alpha-synuclein-induced toxicity. It counts as cell-based, human. The following applies: FIG. 10. An excerpt: (§1) Humans have 28 calpain and caspase isozymes—a large but not impossible number to test. RNAi was used to knock down each of these in turn in a neuronal cell culture model of PD. It is a neuroblastoma cell line (BE(2)-M17) carrying a wild-type α-synuclein overexpressing vector. BE(2)-M17 is a clone of the SK-N-BE(2) cell line that was established in November of 1972 from a bone marrow biopsy taken from a child with neuroblastoma. Synuclein on its own is not toxic to these cells, but it is toxic when combined with an oxidative stress agent such as rotenone or menadione. Greater than 90% reduction of mRNA levels for each of the 29 protease genes was routinely achieved, and greater than 50% reduction in protein levels (typically, about 70% reduction) was routinely achieved.
A cell viability assay was performed using LIVE/DEAD (molecular probes) assay according to the manufacture instructions. As summarized in FIG. 10, both RNAi knockdown of caspase-1/ICE and treatment with the caspase-1/ICE inhibitor block synuclein fragment formation in nerve cells and should inhibit synuclein aggregation in neuronal cells derived from one or more mouse models of PD.

For data set [3], the system named is M17 cells overexpressing α-synuclein. Description: M17 cell viability in the presence of menadione (α-synuclein overexpression). The format is cell-based, human. As to conditions: low concentrations; FIG. 8.
Excerpt: as §1

Data set [4] relates to M17 overexpressing α-synuclein. In words: α-synuclein fragmentation in M17 cells, western blot with anti-synuclein antibody. It counts as cell-based, human. The following applies: 12 μM and 14 μM in 1% DMSO; FIG. 9. Here is the method: In this set of experiments, M17 overexpressing α-synuclein was grown in Optimem in presence or absence of menadione to confluence. Cells were then scraped and lysed by sonnication for SDS-PAGE followed by western blotting with anti-synuclein antibody.

Data set [5] deals with M17 cells carrying empty pcDNA3 vector. In words: M17 cell viability in the presence of menadione (empty vector). The format is cell-based, human. As to conditions: low concentrations; FIG. 8.

With `CC(C)(C)[C@H](NC(=O)c1ccc(N)c(Cl)c1)C(=O)N1CCC[C@H]1C(=O)N[C@H](C#N)CC(=O)O` [NCGC00185682], the BBB penetration entry in data set [1] is listed as “low”. The “ICE-generated α-synuclein fragment below 17 kD (western blot)” value against ICE (20 μM inhibitor, 10 μg ICE, 37° C., 2 hours) is “diminished”. The “block of caspase-1 cleavage of alpha-synuclein” value on ICE (dose-dependent, FIG. 6) is reported as “completely blocks”.

`CCO[C@@H]1OC(=O)C[C@@H]1NC(=O)[C@@H]1CCCN1C(=O)[C@@H](NC(=O)c1ccc(N)c(Cl)c1)C(C)(C)C` [VX-765]: the “rescue from alpha-synuclein-induced toxicity (cell viability)” value in data set [2] was “rescued”. Moreover, the BBB penetration result in data set [1] is given as “low”.

`CC1=CC(=O)c2ccccc2C1=O` [menadione]: in data set [3], the “toxicity to M17 cells overexpressing α-synuclein” value was “toxic”. The “fragmentation of α-synuclein (smaller fragment below 17 kD)” value in data set [4] is on record as “induced fragmentation of α-synuclein”. Further, the “toxicity to M17 cells carrying empty pcDNA3 vector” value in data set [5] is recorded as “not toxic”.
